From patent US10442788B2, “Hepatitis B antiviral agents” (ENANTA PHARMACEUTICALS, INC., priority 2015, dated 2019)

Tests used:
[1] = tested on: HBV; assay: HepAD38 antiviral assay: reduction of viral product accumulation (virion DNA by qPCR, HBsAg or HBeAg by ELISA); type: cell-based; conditions: Hepatitis B virus, 120 h; HepAD38 cells, five days after compound addition; 50% reduction of viral product accumulation relative to no drug controls; read-out: HepAD38 EC50
Description: (§1) Methods: HepAD38 cells are maintained as previously reported (Ladner et al, Antimicrob. Agents Chemother. 1997, […], 1715). Briefly, cells are passaged upon attaining confluency in DMEM/F12 media in the presence of 10% FBS, Penn/Strep, 250 μg/mL G418, and 1 ug/ml tetracycline. Novel compounds are screened by first washing cells three times with PBS to remove tetracycline, and plating in 96 well plates at 35,000 cells/well. Compounds dissolved in DMSO are then diluted 1:200 into wells containing cells. Five days after compound addition, material is harvested for analysis. For an extended 8 day analysis, cells are plated and treated as described above, but media and compound are refreshed on d2 and d5 post initial treatment.
On harvest day, virion DNA is obtained by lysing with Sidestep Lysis and Stabilization Buffer and then quantified via quantitative real time PCR. Commercially available ELISA kits are used to quantitate the viral proteins HBsAg (Alpco) or HbeAg (US Biological) by following the manufacturer's recommended protocol after diluting samples to match the linear range of their respective assays. Irrespective of readout, compound concentrations that reduce viral product accumulation in the cell lysates or supernatants by 50% relative to no drug controls (EC50) are reported; EC50 ranges are as follows: A<1 μM; B 1-10 μM; C>10 μM.

[2] = Compound toxicity, ATPLite total ATP levels; type: cell-based; conditions: human, HepAD38 cells; 15,000 cells/well, three days after compound addition; 50% reduction of total ATP levels relative to no drug controls
Description: as §1
Compound toxicity is evaluated by seeding cells at 15,000 cells/well and treating with compound as described above. Three days after compound addition, cells are treated with ATPLite reagent and compound concentrations that reduce total ATP levels in wells by 50% relative to no drug controls (CC50) are reported; CC50 ranges are as follows: A>30 μM; B 10-30 μM; C<10 μM.

| Structure (SMILES) | EC50 [1] [µM] | CC50 at 3 days [2] [µM] |
| --- | --- | --- |
| O=S(=O)(c1cc2nc(-c3ccccc3)[nH]c2cc1Cl)N1CCC(O)CC1 [Example 2] | > 10 | < 10 |
| O=S(=O)(c1cc2nc(-c3cc(F)c(F)c(F)c3)[nH]c2cc1Cl)N1CCC(O)CC1 [Example 3] | > 10 | > 30 |
| O=S(=O)(c1c(Cl)ccc2c(-c3ccccc3)n[nH]c12)N1CCC(O)CC1 [Example 4] | > 10 | > 30 |
| O=S(=O)(c1c(Cl)ccc2c(-c3cc(F)c(F)c(F)c3)n[nH]c12)N1CCC(O)CC1 [Example 5] | 1 to 10 | > 30 |
| O=S(=O)(c1cc(-c2n[nH]c3ccccc23)ccc1Cl)N1CCC(O)CC1 [Example 6] | > 10 | > 30 |
| O=S(=O)(c1cc(-c2ncc(-c3ccc(F)c(F)c3)[nH]2)cs1)N1CCC(O)CC1 [Example 7] | 1 to 10 | > 30 |
| O=S(=O)(c1cc(-c2cc(-c3ccc(F)c(F)c3)[nH]n2)ccc1Cl)N1CCC(O)CC1 [Example 8] | < 1 | 10 to 30 |
| O=S(=O)(c1cc(-c2nc3ccccc3[nH]2)ccc1Cl)N1CCC(O)CC1 [Example 9] | > 10 | 10 to 30 |
| O=S(=O)(c1cc(-c2nc3cc(F)c(F)cc3[nH]2)ccc1Cl)N1CCC(O)CC1 [Example 10] | 1 to 10 | > 30 |
| O=S(=O)(c1cc(-c2ncc(-c3ccccc3)[nH]2)ccc1Cl)N1CCC(O)CC1 [Example 11] | 1 to 10 | > 30 |
| O=S(=O)(c1cc(-c2ncc(-c3ccc(F)c(F)c3)[nH]2)ccc1Cl)N1CCC(O)CC1 [Example 12] | < 1 | > 30 |
| O=S(=O)(c1cc(-c2ncc(-c3ccc(F)c(Cl)c3)[nH]2)ccc1Cl)N1CCC(O)CC1 [Example 13] | < 1 | 10 to 30 |
| O=S(=O)(c1cc(-c2ncc(-c3ccc(F)c(Br)c3)[nH]2)ccc1Cl)N1CCC(O)CC1 [Example 14] | < 1 | 10 to 30 |
| O=S(=O)(c1ccc2[nH]c(-c3ccccc3)nc2c1)N1CCC(O)CC1 [Example 15] | > 10 | > 30 |
| O=S(=O)(c1cc(-c2cnc(-c3ccc(F)c(F)c3)[nH]2)ccc1Cl)N1CCC(O)CC1 [Example 16] | 1 to 10 | > 30 |
| O=S(=O)(c1cc(-c2nc(-c3ccc(Br)c(F)c3)c[nH]2)ccc1Cl)N1CCC(O)CC1 [Example 18] | < 1 | 10 to 30 |
| O=S(=O)(c1cc(-c2ncc(-c3cccs3)[nH]2)ccc1Cl)N1CCC(O)CC1 [Example 21] | < 1 | > 30 |
| N#Cc1cc(-c2cnc(-c3ccc(Cl)c(S(=O)(=O)N4CCC(O)CC4)c3)[nH]2)ccc1F [Example 22] | < 1 | > 30 |
| O=S(=O)(c1cc(-c2nnc(-c3ccc(F)c(F)c3)[nH]2)ccc1Cl)N1CCC(O)CC1 [Example 23] | 1 to 10 | 10 to 30 |

| Structure (SMILES) | EC50 [1] [µM] | CC50 at 3 days [2] [µM] |
| --- | --- | --- |
| O=S(=O)(c1cc(-c2cc(-c3ccc(F)c(Br)c3)[nH]n2)ccc1Cl)N1CCC(O)CC1 [Example 24] | 1 to 10 | < 10 |
| Cc1cc(-c2cc(-c3ccc(Cl)c(S(=O)(=O)N4CCC(O)CC4)c3)n[nH]2)ccc1F [Example 25] | 1 to 10 | 10 to 30 |
| O=S(=O)(c1cc(-c2ncc(-c3ccc(F)c(F)c3)o2)ccc1Cl)N1CCC(O)CC1 [Example 26] | > 10 | > 30 |
| N#Cc1cc(-c2cc(-c3ccc(Cl)c(S(=O)(=O)N4CCC(O)CC4)c3)n[nH]2)ccc1F [Example 27] | 1 to 10 | > 30 |
| C#Cc1cc(-c2cc(-c3ccc(Cl)c(S(=O)(=O)N4CCC(O)CC4)c3)n[nH]2)ccc1F [Example 28] | < 1 | < 10 |
| O=S(=O)(c1cc(-c2cc(-c3ccc(F)c(Cl)c3)[nH]n2)ccc1Cl)N1CCC(O)CC1 [Example 29] | < 1 | < 10 |
| O=S(=O)(c1cc(-c2nc(-c3cc(F)c(F)c(F)c3)c[nH]2)ccc1Cl)N1CCC(O)CC1 [Example 30] | 1 to 10 | 10 to 30 |
| O=C1CCN(S(=O)(=O)c2cc(-c3ncc(-c4ccc(F)c(Br)c4)[nH]3)ccc2Cl)CC1 [Example 31] | 1 to 10 | 10 to 30 |
| CC1(O)CCN(S(=O)(=O)c2cc(-c3ncc(-c4ccc(F)c(Br)c4)[nH]3)ccc2Cl)CC1 [Example 32] | 1 to 10 | 10 to 30 |
| O=S(=O)(c1cc(-c2nc(-c3ccccn3)c[nH]2)ccc1Cl)N1CCC(O)CC1 [Example 33] | > 10 | 10 to 30 |
| CC(=O)OC1CCN(S(=O)(=O)c2cc(-c3nc(-c4ccc(F)c(Br)c4)c[nH]3)ccc2Cl)CC1 [Example 35] | 1 to 10 | 10 to 30 |
| COC(=O)[C@@H]1CCCN1S(=O)(=O)c1cc(-c2ncc(-c3ccc(F)c(Br)c3)[nH]2)ccc1Cl [Example 36] | > 10 | > 30 |
| O=S(=O)(c1cc(-c2ncc(-c3ccc(F)c(Br)c3)[nH]2)ccc1Cl)N1CCCCC1 [Example 37] | < 1 | < 10 |
| O=S(=O)(NCCO)c1cc(-c2ncc(-c3ccc(F)c(Br)c3)[nH]2)ccc1Cl [Example 38] | < 1 | 10 to 30 |
| O=S(=O)(c1cc(-c2ncc(-c3ccc(Br)c(F)c3)[nH]2)ccc1Cl)N1CCC[C@@H](CO)C1 [Example 261] | < 1 |  |
| O=S(=O)(c1cc(-c2ncc(-c3ccc(Br)c(F)c3)[nH]2)ccc1Cl)N1CCC[C@H](CO)C1 [Example 262] | < 1 |  |
| O=S(=O)(c1cc(-c2nc(-c3ccc(Br)c(F)c3)c[nH]2)ccc1Cl)N1CCC[C@H](O)[C@H](O)C1 [Example 263] | < 1 |  |
| O=S(=O)(c1cc(-c2nc(-c3ccc(Br)c(F)c3)c[nH]2)ccc1Cl)N1CCC[C@@H](O)[C@@H](O)C1 [Example 264] | < 1 |  |
| O=S(=O)(c1cc(-c2nc(-c3ccc(Br)c(F)c3)c[nH]2)ccc1Cl)N1CCn2c(nnc2C(F)(F)F)C1 [Example 265] | < 1 |  |

| Structure (SMILES) | EC50 [1] [µM] | CC50 at 3 days [2] [µM] |
| --- | --- | --- |
| O=S(=O)(c1cc(-c2nc(-c3ccc(Br)c(F)c3)c[nH]2)ccc1Cl)N1CCCOCC1 [Example 266] | < 1 |  |
| O=S(=O)(c1cc(-c2nc(-c3ccc(Br)c(F)c3)c[nH]2)ccc1F)N1CCC(O)CC1 [Example 267] | < 1 |  |
| O=S(=O)(c1cc(-c2ncc(-c3ccc(Br)c(F)c3)[nH]2)ccc1Cl)N1CCC[C@@H](O)C1 [Example 268] | < 1 |  |
| O=S(=O)(c1cc(-c2ncc(-c3ccc(Br)c(F)c3)[nH]2)ccc1Cl)N1CCCCC(CO)C1 (stereo not drawn) [Example 269] | < 1 |  |
| O=S(=O)(c1cc(-c2ncc(-c3ccc(Br)c(F)c3)[nH]2)ccc1Cl)N1CC[C@H](O)[C@@H](C(F)(F)F)C1 [Example 270] | < 1 |  |
| O=S(=O)(c1cc(-c2ncc(-c3ccc(Br)c(F)c3)[nH]2)ccc1Cl)N1CC[C@H](O)C1 [Example 271] | < 1 |  |
| COC(=O)N1C[C@@H]2[C@@H](CNS(=O)(=O)c3cc(-c4ncc(-c5ccc(Br)c(F)c5)[nH]4)ccc3Cl)[C@@H]2C1 [Example 272] | 1 to 10 |  |
| COC(=O)NC1CN(S(=O)(=O)c2cc(-c3ncc(-c4ccc(Br)c(F)c4)[nH]3)ccc2Cl)C1 [Example 273] | < 1 |  |
| COC(=O)NCC1CCN(S(=O)(=O)c2cc(-c3ncc(-c4ccc(Br)c(F)c4)[nH]3)ccc2Cl)C1 (stereo not drawn) [Example 274] | < 1 |  |
| O=S(=O)(c1cc(-c2nc(-c3ccc(Br)c(F)c3)c[nH]2)ccc1Cl)N1C[C@H](O)C[C@@H]2C[C@@H]2C1 [Example 275] | < 1 |  |
| O=S(=O)(c1cc(-c2nc(-c3ccc(Br)c(F)c3)c[nH]2)ccc1Cl)N1CCN(c2ncccc2F)CC1 [Example 276] | < 1 |  |
| O=S(=O)(c1cc(-c2nc(-c3ccc(Br)c(F)c3)c[nH]2)ccc1Cl)N1CCC[C@@H](O)[C@H](O)C1 [Example 277] | < 1 |  |
| O=S(=O)(c1cc(-c2nc(-c3ccc(Br)c(F)c3)c[nH]2)ccc1Cl)N1CCC[C@H](O)[C@@H](O)C1 [Example 278] | < 1 |  |
| O=S(=O)(c1cc(-c2nc(-c3ccc(Br)c(F)c3)c[nH]2)ccc1Cl)N1CCN(c2ncccc2Cl)CC1 [Example 279] | < 1 |  |
| O=S(=O)(c1cc(-c2nc(-c3ccc(Br)c(F)c3)c[nH]2)ccc1Cl)N1CCN(c2cc(Cl)ccn2)CC1 [Example 280] | < 1 |  |
| O=S(=O)(c1cc(-c2nc(-c3ccc(Br)c(F)c3)c[nH]2)ccc1Cl)N1CCN(c2ccc(Cl)cn2)CC1 [Example 281] | < 1 |  |
| O=S(=O)(c1cc(-c2nc(-c3ccc(Br)c(F)c3)c[nH]2)ccc1Cl)N1CCN(c2cccc(Cl)n2)CC1 [Example 282] | < 1 |  |
| O=S(=O)(c1cc(-c2nc(-c3ccc(Br)c(F)c3)c[nH]2)ccc1Cl)N1C[C@H](O)CC[C@@H](O)C1 [Example 283] | < 1 |  |
| O=S(=O)(c1cc(-c2nc(-c3ccc(Br)c(F)c3)c[nH]2)ccc1Cl)N1C[C@H](O)CC[C@H](O)C1 [Example 284] | < 1 |  |
